Experimental data as given in patent US20240335385A1, “IONIZABLE AMINE LIPIDS AND LIPID NANOPARTICLES” (Beam Therapeutics Inc., priority 2021, published 2024).

Experiments:
ALAS1 target site = experiment: Base editing in liver by LNP carrying adenine base editor mRNA and sgRNA, targeted deep sequencing; format: in vivo; settings: Balb/C mice, tail vein, 0.15 mg/kg total RNA (ABE mRNA:sgRNA 1:1), four to six days post-dose
Method: Exemplary LNP preparations were selected to determine each preparation's ability to perform base editing in a Balb/C mouse model as described herein.
Lipid nanoparticle components were dissolved in 100% ethanol at specified lipid component molar ratios. mRNA encoding an adenine base editor and a chemically-modified sgRNA was dissolved at a mass ratio of 1:1 in 50 mM citrate, pH 4.0, resulting in a concentration of NA cargo of approximately 0.1 mg/mL.
LNP preparations were formulated with molar ratios of 47.5% Ionizable Lipid:40% Cholesterol:2.5% PEG2000-DMG:10% DSPC total lipid to NA mass ratio of 6 to 12. […]
A 3:1 ratio of aqueous to organic solvent was maintained during mixing using differential flow rates. […] After this initial dialysis, each individual LNP preparation was characterized via dynamic light scattering (DLS) to measure size and polydispersity. pKa of a subpopulation of LNP preparations was measured via TNS assay. […]
Age-matched mice were also used to administer vehicle (1×TBS) via tail vein injection as a control. […] Base editing is determined by performing targeted deep sequencing analysis at the ALAS1 target site using extracted genomic DNA. […] Library size and concentration was confirmed by Fragment Analyzer (Agilent) and analyzed for […] using an Illumina HiSeq.

[1] = RNA encapsulation efficiency of LNPs by Ribogreen assay; format: physicochemical; settings: LNP of 47.5% Ionizable Lipid:40% cholesterol:2.5% PEG-2000 DMG:10% DPSC, N/P ratio 4-8
Method: (§1) LNPs were prepared with 47.5% Ionizable Lipid (e.g., a compound provided herein):40% cholesterol:2.5% PEG-2000 DMG:10% DPSC and an N/P ratio range of 4-8. LNPs were formed by microfluidic mixing of the lipid and NA solutions using a Precision Nanosystems NanoAssemblr Spark or Benchtop series Instruments, according to the manufacturer's protocol. A ratio of aqueous to organic solvent of approximately 2:1 or 3:1 was maintained during mixing using differential flow rates. After mixing, LNPs were collected, diluted in phosphate buffer saline (PBS) or Tris-buffered saline (TBS) (approximately 1:1 v/v). Further buffer exchange was conducted using dialysis in PBS or TBS at 4° C. for 4 to 24 hours against a 20 kDa filter. After this initial dialysis, each individual LNP preparation was characterized via dynamic light scattering (DLS) to measure the size (e.g., diameter) and polydispersity. LNPs falling within specific diameter and polydispersity ranges were pooled, and further dialyzed against PBS or TBS at 4° C. for 1 to 4 hours against a 100 kDa dialysis cassette. After the second dialysis, LNPs were sterile filtered using 0.22 μm filter and stored at 4° C. for further use.
RNA concentration and encapsulation efficiency were determined by Ribogreen assay (BioTek Synergy LX plate reader).

[2] = LNP hydrodynamic diameter and polydispersity index by dynamic light scattering (DLS); format: physicochemical; settings: LNP of 47.5% Ionizable Lipid:40% cholesterol:2.5% PEG-2000 DMG:10% DPSC, N/P ratio 4-8
Method: as §1
LNP hydrodynamic diameter and polydispersity index (PDI) were measured using high throughput dynamic light scattering (DLS) (Stunner, Unchained Labs). LNPs were diluted 1×TBS or PBS to an appropriate concentration and analyzed.

Row | Mean Encapsulation Efficiency (%) [1] [%] | Mean Diameter (nm) [2] [nm] | Mean PDI [2] | Compound | base editing observed in liver (ALAS1 target site) [%]
1 | 86.4 | 90.0 | 0.11 | CC/C=C\CCCCOC(CCC(=O)OCCCC(CCCOC(=O)CCCCCCC/C=C\C/C=C\CCCCC)OC(=O)OCC1CCCN(CC)C1)OCCCC/C=C\CC (centres unmarked) [Example 7-21, 7-((4,4-bis(((Z)-oct-5-en-1-yl)oxy)butanoyl)oxy)-4-((((1-ethylpiperidin-3-yl)methoxy)carbonyl)oxy)heptyl (9Z,12Z)-octadeca-9,12-dienoate] | 34.1
2 | 84.3 | 80.3 | 0.11 | CC/C=C\CCCCOC(CCC(=O)OCCCCC(CCCCOC(=O)CCCCCCC/C=C\C/C=C\CCCCC)OC(=O)OCC1CCCN(CC)C1)OCCCC/C=C\CC (centres unmarked) [Example 7-41, 9-((4,4-bis(((Z)-oct-5-en-1-yl)oxy)butanoyl)oxy)-5-((((1-ethylpiperidin-3-yl)methoxy)carbonyl)oxy)nonyl (9Z,12Z)-octadeca-9,12-dienoate] | 1.7
